In ChEMBL document CHEMBL1697781, “Assessment of the health effects of chemicals in humans: II. Construction of an adverse effects database for QSAR modeling” (Curr Drug Discov Technol, 2004):

Tests used:
Conditions in all cases: human; call rule not given here
Hepatotoxicity [1] = test: FDA HLAED, liver enzyme composite activity
Hepatotoxicity [2] = test: FDA HLAED, alkaline phosphatase increase
Hepatotoxicity [3] = test: FDA HLAED, serum glutamic oxaloacetic transaminase (SGOT) increase
Hepatotoxicity [4] = test: FDA HLAED, serum glutamic pyruvic transaminase (SGPT) increase
Hepatotoxicity [5] = test: FDA HLAED, lactate dehydrogenase (LDH) increase
Hepatotoxicity [6] = test: FDA HLAED, gamma-glutamyl transferase (GGT) increase
For GGT Increase - Index Value in this document: reference of the scale not given here.
For LDH Increase - Index Value in this document: reference of the scale not given here.

Molecule | Composite Activity - Active (Hepatotoxicity [1]) | Composite Activity - Marginal (Hepatotoxicity [1]) | Composite Activity - Score (Hepatotoxicity [1]) | Alkaline Phosphatase Increase - Activity Score (Hepatotoxicity [2]) | Alkaline Phosphatase Increase - Index Value (Hepatotoxicity [2]) | Alkaline Phosphatase Increase - Number of Reports (Hepatotoxicity [2]) | SGOT Increase - Activity Score (Hepatotoxicity [3]) | SGOT Increase - Index Value (Hepatotoxicity [3]) | SGOT Increase - Number of Reports (Hepatotoxicity [3]) | SGPT Increase - Activity Score (Hepatotoxicity [4]) | SGPT Increase - Index Value (Hepatotoxicity [4]) | SGPT Increase - Number of Reports (Hepatotoxicity [4]) | LDH Increase - Activity Score (Hepatotoxicity [5]) | LDH Increase - Index Value (Hepatotoxicity [5]) | LDH Increase - Number of Reports (Hepatotoxicity [5]) | GGT Increase - Activity Score (Hepatotoxicity [6]) | GGT Increase - Index Value (Hepatotoxicity [6]) | GGT Increase - Number of Reports (Hepatotoxicity [6])
Cc1ccc(-c2nc3ccc(C)cn3c2CC(=O)N(C)C)cc1 [ZOLPIDEM] | 0 | 4 | Marginally Active | Marginally Active | 3 | >= 4 | Marginally Active | 3.8 | >= 4 | Marginally Active | 3.9 | >= 4 | Inactive | 0.7 | >= 4 | Marginally Active | 3 | >= 4
Cc1cc(CC(=O)O)n(C)c1C(=O)c1ccc(Cl)cc1 [ZOMEPIRAC] | 0 | 0 | Inactive | Inactive | 1.1 | >= 4 | Inactive | 1.1 | >= 4 | Inactive | 0.7 | >= 4 | Inactive | 0.7 | >= 4 | Inactive | 0 | < 4
NYSTATIN | 0 | 0 | Inactive | Inactive | 0.3 | < 4 | Inactive | 0 | < 4 | Inactive | 0 | < 4 | Inactive | 0 | < 4 | Inactive | 0 | < 4
